Results from US11597724B2, “Herbicidally active 3-phenylisoxazoline-5-carboxamides of tetrahydro and dihydrofuran carboxylic acids and esters” (Bayer Aktiengesellschaft, priority 2017, dated 2023).

What was measured:
Type in all cases: in vivo
[1] = test system: Veronica persica; assay: Post-emergence herbicidal activity against VERPE; conditions: Veronica persica, 504 h, dosage 320 g/ha
Outline: (§1)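 Greenhouse plants treated at one-leaf stage, 2–3 weeks after sowing, by spraying WP or EC formulations with 0.5% additive at 600 l/ha water. Visual rating about 3 weeks later versus untreated controls (100% = plants dead, 0% = like controls).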

[2] = test system: Alopecurus myosuroides; assay: Post-emergence herbicidal activity against ALOMY; conditions: Alopecurus myosuroides, 504 h, dosage 320 g/ha, rated about 3 weeks after treatment
Outline: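 Greenhouse-grown plants treated at one-leaf stage, 2 to 3 weeks after sowing, with WP or EC formulations sprayed as aqueous suspension/emulsion plus 0.5% additive at 600 l/ha. Activity rated visually about 3 weeks later versus untreated controls (100% = plants dead, 0% = like control).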

[3] = test system: Hordeum murinum; assay: Post-emergence herbicidal activity against HORMU; conditions: Hordeum murinum, 504 h, dosage 320 g/ha
Outline: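 Greenhouse pot plants sprayed post-emergence at one-leaf stage (2-3 weeks after sowing) with WP or EC formulations, 0.5% additive, 600 l/ha water. Visual rating about 3 weeks later versus untreated controls: 100% = plants dead, 0% = like control.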

[4] = test system: Pharbitis purpurea; assay: Post-emergence herbicidal activity against PHBPU; conditions: Ipomoea purpurea, 504 h, dosage 320 g/ha, rated about 3 weeks after treatment
Outline: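 Greenhouse-grown plants sprayed post-emergence at the one-leaf stage, 2 to 3 weeks after sowing, with WP or EC formulations plus 0.5% additive at 600 l/ha water. Activity rated visually after about 3 weeks versus untreated controls (100% = plants dead, 0% = like control).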

[5] = test system: Stellaria media; assay: Post-emergence herbicidal activity against STEME; conditions: Stellaria media, 504 h, dosage 320 g/ha, rated about 3 weeks after treatment
Outline: as §1

[6] = test system: Polygonum convolvulus; assay: Post-emergence herbicidal activity against POLCO; conditions: Fallopia convolvulus, 504 h, dosage 320 g/ha, rated about 3 weeks after treatment
Outline: (§2)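 Greenhouse weeds in sandy loam were sprayed at the one-leaf stage, 2–3 weeks after sowing, with WP or EC formulations plus 0.5% additive at 600 l/ha water. About 3 weeks later, damage was rated visually against untreated controls, where 100% means plants dead and 0% means like control.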

[7] = test system: Setaria viridis; assay: Post-emergence herbicidal activity against SETVI; conditions: Setaria viridis, 504 h, dosage 320 g/ha, rated about 3 weeks after treatment
Outline: as §2

Row | SMILES | pest or weed control at 320 g/ha [1] [%] | pest or weed control at 320 g/ha [2] [%] | pest or weed control at 320 g/ha [3] [%] | pest or weed control at 320 g/ha [4] [%] | pest or weed control at 320 g/ha [5] [%] | pest or weed control at 320 g/ha [6] [%] | pest or weed control at 320 g/ha [7] [%]
1 | C=C[C@]1(C(=O)N[C@@H]2CO[C@@H](C(=O)OC)C2)CC(c2cc(F)cc(F)c2)=NO1 (mixture of isomers) [I-56, methyl trans-4-[[(5S)-3-(3,5-difluorophenyl)-5-vinyl-4H-isoxazole-5-carbonyl]amino]tetrahydrofuran-2-carboxylate] | 90 | 90 | 90 | 90 | 90 | 90 | 90
2 | COC(=O)[C@H]1C[C@@H](NC(=O)C2(C(F)(F)F)CC(c3cc(F)cc(F)c3)=NO2)CO1 (relative stereo) [I-06, methyl cis-4-[[3-(3,5-difluorophenyl)-5-(trifluoromethyl)-4H-isoxazole-5-carbonyl]amino]tetrahydrofuran-2-carboxylate] | 80 | 90 |  | 90 | 80 | 80 | 80
3 | C=CC1(C(=O)N[C@H]2CO[C@@H](C(=O)OC)C2)CC(c2cccc(F)c2)=NO1 (relative stereo) [I-07, methyl cis-4-[[3-(3-fluorophenyl)-5-vinyl-4H-isoxazole-5-carbonyl]amino]tetrahydrofuran-2-carboxylate] | 80 | 90 |  | 90 | 90 | 80 | 80
4 | C=CC1(C(=O)NC2=C(C(=O)OCC)COC2)CC(c2cc(F)cc(F)c2)=NO1 (stereo not shown) [I-23, ethyl 4-[[3-(3,5-difluorophenyl)-5-vinyl-4H-isoxazole-5-carbonyl]amino]-2,5-dihydrofuran-3-carboxylate] |  | 100 | 100 | 90 | 90 | 90 | 
5 | C=CC1(C(=O)N[C@H]2CO[C@@H](C(=O)OC)C2)CC(c2cc(Cl)cc(Cl)c2)=NO1 (relative stereo) [I-03, methyl cis-4-[[3-(3,5-dichlorophenyl)-5-vinyl-4H-isoxazole-5-carbonyl]amino]tetrahydrofuran-2-carboxylate] | 80 | 90 |  | 90 | 90 | 80 | 80
6 | COC(=O)[C@H]1C[C@@H](NC(=O)C2(OC)CC(c3cc(C)cc(Br)c3)=NO2)CO1 (relative stereo) [I-08, methyl cis-4-[[3-(3-bromo-5-methylphenyl)-5-methoxy-4H-isoxazole-5-carbonyl]amino]tetrahydrofuran-2-carboxylate] | 80 |  |  | 90 |  | 80 | 80
7 | COC(=O)[C@H]1C[C@@H](NC(=O)C2(C)CC(c3cc(C)cc(Br)c3)=NO2)CO1 (relative stereo) [I-04, methyl cis-4-[[3-(3-bromo-5-methylphenyl)-5-methyl-4H-isoxazole-5-carbonyl]amino]tetrahydrofuran-2-carboxylate] | 80 | 90 |  | 90 | 90 | 80 | 80
8 | COC(=O)[C@H]1C[C@@H](NC(=O)C2(OC)CC(c3ccccc3)=NO2)CO1 (relative stereo) [I-14, methyl cis-4-[(5-methoxy-3-phenyl-4H-isoxazole-5-carbonyl)amino]tetrahydrofuran-2-carboxylate] | 80 | 100 |  | 80 | 90 | 90 | 80
